This note sets out measurements from patent publication US6887492B2, “Magnesium plus interactive agent delivery” (Leiner Health Services Corp., priority 2000, dated 2005).

Each structure is given as a SMILES string.

The nature of this data set: Dissolution times of calcium and magnesium in water at pH 7. It is filed as physicochemical. The conditions noted are these: water pH 7. The procedure: The dissolution times for calcium and magnesium were measured by dissolving each in a solution of water having a pH of 7. 331 mg of calcium was placed in a beaker containing the solution an allowed to dissolve. 165 mg of magnesium was then placed in a second beaker and dissolved. The results are listed below in Table 1 and shown graphically in FIG. 1.

For `[Ca+2]` [CALCIUM, calcium], the “Dissolution, percent (%)” value (dissolution time 0 min) was determined as 0%; the “Dissolution, percent (%)” value (dissolution time 15 min) is reported as 99.7%; the “Dissolution, percent (%)” value (dissolution time 30 min) is recorded as 98.79%; the “Dissolution, percent (%)” value (dissolution time 45 min) was 98.19%; the “Dissolution, percent (%)” value (dissolution time 60 min) is 99.09%; the “Dissolution, percent (%)” value (dissolution time 75 min) came to 96.79%. Further, the “Dissolution, percent (%)” value runs as follows: (dissolution time 90 min) 97.89%; (dissolution time 105 min) 100%; (dissolution time 120 min) 99.09%.

For `[Mg+2]` [MAGNESIUM, magnesium], the “Dissolution, percent (%)” value was 0% (dissolution time 0 min); 4.93% (dissolution time 30 min); 10.61% (dissolution time 60 min); 16.48% (dissolution time 90 min); 21.76% (dissolution time 120 min); 26.61% (dissolution time 150 min). Also, the “Dissolution, percent (%)” value is on record as 31.82% (dissolution time 180 min); 36.67% (dissolution time 210 min); 41.82% (dissolution time 240 min); 46.79% (dissolution time 270 min); 50.67% (dissolution time 300 min); 55.21% (dissolution time 330 min). Moreover, under “dissolution time 360 min”, the “Dissolution, percent (%)” value stood at 58.91%.
